According to patent publication US10517889B2, “Modulators of SMAD7 expression” (Ionis Pharmaceuticals, Inc., priority 2017, dated 2019):
Strand notation (5' to 3'): a small letter for the sugar, then the base; units joined by * are phosphorothioate-linked, units joined directly phosphodiester-linked; [ ] holds rarer units or linkages, { } end groups; capitals alone tell only the bases. k = constrained ethyl (cEt); [5mC] = 5-methylcytosine; d = 2'-deoxy (DNA)

tested on: human SMAD7 mRNA; assay: Antisense inhibition of human SMAD7 mRNA expression in Hep3B cells by 3-10-3 cEt gapmers, 10,000 nM, electroporation (Example 2); assay type: cell-based; conditions: Hep3B cells, 10,000 nM antisense oligonucleotide, electroporation, approximately 24 hours, RT-PCR primer probe set RTS5062, relative to untreated control cells
Outline: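 Hep3B cells (20,000 per well) were electroporated with 10,000 nM 16-mer 3-10-3 cEt gapmer (phosphorothioate, 5-methylcytosine). After about 24 h, SMAD7 mRNA was quantified by qRT-PCR with primer probe set RTS5062, normalised to RIBOGREEN total RNA, and expressed as percent inhibition versus untreated cells.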

Substance | % Inhibition [%]
772613 (kA*kT*kT*dG*dA*dG*d[5mC]*dT*dG*dT*d[5mC]*d[5mC]*dG*kA*kG*kG; antisense) [compound 772613] | 7
790533 (kG*kG*k[5mC]*dT*dA*d[5mC]*d[5mC]*dG*dG*d[5mC]*dT*dG*dT*kT*kG*kA; antisense) [compound 790533] | 16
798906 (kG*k[5mC]*kT*dA*d[5mC]*d[5mC]*dG*dG*d[5mC]*dT*dG*dT*dT*kG*kA*kA; antisense) [compound 798906] | 0
800095 (antisense kA*kG*kT*dT*dA*d[5mC]*dA*dG*dA*dT*d[5mC]*dT*dT*kT*k[5mC]*kA) [compound 800095] | 47

same assay, conditions: Hep3B cells, electroporation with 10,000 nM antisense oligonucleotide, approximately 24 hours, RTS5062, percent inhibition of SMAD7 mRNA relative to untreated control cells

Substance | % Inhibition [%]
799806 (antisense kG*kA*kG*dG*dA*dG*d[5mC]*dG*dA*dG*dA*dA*dG*kA*kG*kT) [compound 799806] | 6
799844 (antisense kA*kG*kA*dG*dG*dA*dG*dG*dA*dG*dG*d[5mC]*dA*kA*kA*kT) [compound 799844] | 11
799691 (antisense kT*k[5mC]*k[5mC]*d[5mC]*dA*dT*dA*dG*dG*dT*dG*dT*dA*k[5mC]*kA*kA) [compound 799691] | 49
799545 (kT*k[5mC]*k[5mC]*d[5mC]*dA*d[5mC]*d[5mC]*d[5mC]*dT*dG*dG*dT*dG*k[5mC]*kT*k[5mC]; antisense) [compound 799545] | 9
799726 (antisense kG*kT*kA*dT*d[5mC]*d[5mC]*dT*dT*dT*d[5mC]*dA*d[5mC]*dG*kA*kG*kG) [compound 799726] | 49

same assay, conditions: Hep3B cells, electroporation with 10,000 nM antisense oligonucleotide, approximately 24 hours, SMAD7 mRNA by RT-PCR (RTS5062), relative to untreated control cells

Substance | % Inhibition [%]
830079 (kA*kT*kA*d[5mC]*d[5mC]*d[5mC]*dT*dG*d[5mC]*dA*d[5mC]*dT*dT*kT*k[5mC]*kT; antisense) [compound 830079] | 22
830160 (antisense kT*kG*kG*dT*dG*dT*dG*dT*dT*dA*dA*d[5mC]*d[5mC]*kA*k[5mC]*kT) [compound 830160] | 54
799330 (kG*kG*kT*dA*dT*dG*d[5mC]*dA*d[5mC]*dA*d[5mC]*dT*d[5mC]*kT*k[5mC]*k[5mC]; antisense) [compound 799330] | 45
798667 (kT*kG*kG*d[5mC]*dA*dT*dG*d[5mC]*dG*d[5mC]*d[5mC]*dA*dG*kT*k[5mC]*kT; antisense) [compound 798667] | 21
799929 (antisense kT*kG*k[5mC]*d[5mC]*d[5mC]*dA*dG*dG*d[5mC]*dT*dT*dG*dG*kT*kT*k[5mC]) [compound 799929] | 9
830190 (antisense kT*kA*kA*dT*d[5mC]*dA*dG*dA*dT*dG*d[5mC]*d[5mC]*dT*kG*k[5mC]*kT) [compound 830190] | 39
799257 (antisense k[5mC]*k[5mC]*k[5mC]*d[5mC]*dA*dA*dA*dA*d[5mC]*dT*d[5mC]*d[5mC]*dA*kA*kA*kG) [compound 799257] | 27

same assay, conditions: Hep3B cells, electroporation with 10,000 nM antisense oligonucleotide, approximately 24 hours, primer probe set RTS5062, relative to untreated control cells

Substance | % inhibition of SMAD7 mRNA expression [%] | % Inhibition [%]
799262 (antisense k[5mC]*kT*k[5mC]*dT*dT*dT*dG*d[5mC]*d[5mC]*d[5mC]*d[5mC]*dA*dA*kA*kA*k[5mC]) [compound 799262] | 0 | –
799139 (antisense k[5mC]*kG*kG*dA*d[5mC]*d[5mC]*dA*dA*dA*dT*d[5mC]*d[5mC]*dT*kT*k[5mC]*kT) [compound 799139] | – | 56
799251 (antisense kA*kG*kG*dT*dG*d[5mC]*dG*d[5mC]*dG*dG*d[5mC]*d[5mC]*dA*k[5mC]*kG*kA) [compound 799251] | 37 | –
798765 (kA*kA*k[5mC]*dA*d[5mC]*dT*dT*dT*dG*d[5mC]*dA*d[5mC]*dA*kG*k[5mC]*kA; antisense) [compound 798765] | 63 | –
799482 (antisense kG*kA*kA*dA*dA*dG*d[5mC]*d[5mC]*dG*dG*dG*d[5mC]*dA*kT*k[5mC]*kT) [compound 799482] | 30 | –
799123 (antisense k[5mC]*kT*kT*dG*d[5mC]*dT*dG*dG*d[5mC]*d[5mC]*dT*dA*dA*kT*kA*kG) [compound 799123] | 23 | –
799030 (kG*k[5mC]*kA*dG*dG*dA*dG*dA*dG*dA*d[5mC]*dA*d[5mC]*k[5mC]*kG*k[5mC]; antisense) [compound 799030] | 52 | –
798967 (antisense kT*k[5mC]*kA*dT*dA*d[5mC]*d[5mC]*dT*dG*d[5mC]*d[5mC]*d[5mC]*d[5mC]*kT*kT*k[5mC]) [compound 798967] | 40 | –
798675 (antisense k[5mC]*kA*kG*dG*d[5mC]*dG*d[5mC]*dA*dG*dG*d[5mC]*dG*dA*k[5mC]*kA*kG) [compound 798675] | 51 | –
799031 (kT*kG*k[5mC]*d[5mC]*dT*d[5mC]*dT*dG*d[5mC]*d[5mC]*d[5mC]*d[5mC]*dA*k[5mC]*kT*kG; antisense) [compound 799031] | 46 | –
799132 (antisense kA*kA*kG*d[5mC]*dA*dT*dG*dT*d[5mC]*d[5mC]*d[5mC]*dT*d[5mC]*k[5mC]*k[5mC]*kA) [compound 799132] | 38 | –

same assay, conditions: Hep3B cells, electroporation, 10,000 nM antisense oligonucleotide, approximately 24 hours, RTS5062, relative to untreated control cells

Substance | % inhibition of SMAD7 mRNA expression [%]
799580 (kA*kA*kA*d[5mC]*d[5mC]*dT*dT*d[5mC]*d[5mC]*dG*dA*dA*dA*kG*kG*kA; antisense) [compound 799580] | 33
799732 (antisense kG*kG*kG*dA*dT*d[5mC]*dA*dG*dG*dT*dG*dA*dG*kT*kG*kT) [compound 799732] | 48
799672 (antisense kA*k[5mC]*kA*dG*dG*dA*dT*dG*dG*dA*dG*d[5mC]*dA*kA*kT*kG) [compound 799672] | 41
799677 (antisense kG*k[5mC]*kT*d[5mC]*dA*dT*dG*dA*dG*d[5mC]*dA*dT*dT*kT*kG*kG) [compound 799677] | 68
799515 (antisense k[5mC]*k[5mC]*k[5mC]*d[5mC]*dA*dG*dA*d[5mC]*d[5mC]*dT*dG*d[5mC]*dT*kA*kA*kG) [compound 799515] | 38
799740 (antisense kT*kT*kA*dA*dA*dT*dA*dA*d[5mC]*dT*dG*dT*d[5mC]*k[5mC]*kT*k[5mC]) [compound 799740] | 48

same assay, conditions: SMAD7 mRNA, Hep3B cells, 10,000 nM antisense oligonucleotide, electroporation, approximately 24 hours, primer probe set RTS5062, relative to untreated control cells

Substance | % Inhibition [%]
790611 (kG*k[5mC]*kT*dT*dA*dT*dG*dT*dT*dA*dA*dA*dG*kT*k[5mC]*kT; antisense) [compound 790611] | 59
829775 (antisense k[5mC]*kG*kA*dG*dT*dA*dG*dG*dA*d[5mC]*dG*dA*dG*kG*kG*k[5mC]) [compound 829775] | 59
790678 (kT*k[5mC]*k[5mC]*dT*dA*dT*dT*dG*dG*d[5mC]*dT*dG*dA*kT*k[5mC]*kT; antisense) [compound 790678] | 46

same assay, conditions: SMAD7 mRNA, Hep3B cells, electroporation with 10,000 nM antisense oligonucleotide, approximately 24 hours, primer probe set RTS5062, relative to untreated control cells

Substance | % Inhibition [%]
829977 (kT*kA*kG*d[5mC]*dT*dG*dT*d[5mC]*dA*dG*dA*dT*dA*kA*kA*k[5mC]; antisense) [compound 829977] | 35
829866 (antisense kG*kT*kG*dG*d[5mC]*dG*dG*dA*d[5mC]*dT*dT*dG*dA*kT*kG*kA) [compound 829866] | 10
829900 (antisense k[5mC]*kA*k[5mC]*dG*dG*dG*d[5mC]*dA*dG*d[5mC]*dT*dG*d[5mC]*kT*kG*kA) [compound 829900] | 0
